Measured values reported in patent US20220107328A1, “METHODS OF TREATING LIVER DISEASES” (Camp4 Therapeutics Corporation, priority 2018, published 2022).

Columns and labels:
PNPLA3 mRNA [1] = assay: qRT-PCR of PNPLA3 mRNA in compound-treated primary human hepatocytes; details: for Primary Hepatocytes 4178 PNPLA3 (fold change in mRNA expression): donor 4178, 3 μM; for Primary Hepatocytes 4178 PNPLA3 (fold change in mRNA expression) / Primary Hepatocytes 4282 PNPLA3 (fold change in mRNA expression): relative to GUSB; for Primary Hepatocytes 4282 PNPLA3 (fold change in mRNA expression): donor 4282, 3 μM; for PNPLA3 mRNA: human hepatocytes, time point not stated; for PNPLA3 mRNA / PNPLA3 mRNA expression level over time (in words): 3 μM, normalized to GUSB; for PNPLA3 mRNA expression level over time (in words): 35 min to 20 hrs
PCSK9 mRNA = assay: qRT-PCR of PCSK9 mRNA in primary hepatocytes; type: cell-based, human; details: donor 4178, 3 μM, relative to GUSB
[2] = tested on: phosphorylated AKT (pAKT/AKT); assay: Western blot of phosphorylated AKT in human hepatocytes; type: cell-based; details: 3 μM; for pAKT (473)/AKT: human hepatocytes, mTORC2 pathway, time point not stated
Protocol: (§1) Levels of phosphorylated S6, AKT, and NDRG1 proteins were determined as compared to total S6, AKT, and NDRG1 protein. PNPLA3 mRNA expression was quantified and normalized to housekeeping gene GUSB.

[3] = tested on: phosphorylated S6 (pS6/S6); assay: Western blot of phosphorylated S6 in human hepatocytes; type: cell-based; details: 3 μM; for pS6/S6: human hepatocytes, mTORC1 pathway, time point not stated
Protocol: as §1

[4] = tested on: phosphorylated NDRG1 (pNDRG1/NDRG1); assay: Western blot of phosphorylated NDRG1 in human hepatocytes; type: cell-based; details: 3 μM, mTORC2 pathway, time point not stated
Protocol: as §1

PNPLA3 mRNA [5] = assay: qRT-PCR of PNPLA3 mRNA in human primary hepatic stellate cells; type: cell-based; details: for Primary Stellate cells PNPLA3 (fold change in mRNA expression): 3 μM, relative to GAPDH
COL1A1 mRNA = assay: qRT-PCR of COL1A1 mRNA in human primary hepatic stellate cells; type: cell-based; details: for Primary Stellate cells COL1A1 (fold change in mRNA expression): 3 μM, relative to GAPDH
Protocol: Cells were plated at a density of 17000 cells/well in a 96-well plate and allowed to adhere overnight. The following day cell culture media was replenished with the indicated concentration(s) of compound for 18 hours. […] Medium was removed after 18 hours and cells were processed for further analysis, e.g. qRT-PCR.
Analysis of the fold changes in expression as measured by qRT-PCR were performed using the technique below. The control was DMSO, and the treatment was the selected compound (CPD). The internal control was GAPDH or B-Actin (or otherwise indicated), and the gene of interest is the target. First, the averages of the 4 conditions were calculated for normalization: DMSO:GAPDH, DMSO:Target, CPD: GAPDH, and CPD:Target. Next, the ΔCT of both control and treatment were calculated to normalize to internal control (GAPDH) using (DMSO:Target)−(DMSO:GAPDH)=ΔCT control and (CPD:Target)−(CPD: GAPDH)=ΔCT experimental. Then, the ΔΔCT was calculated by ΔCT experimental−ΔCT control.
Candidate compounds were tested in stellate cells for their ability to modulate PNPLA3 and COL1A1. Stellate cells were treated with serial dilutions of the compounds, ranging from 0.1 μM to 100 μM. Changes in PNPLA3 (or COL1A1) mRNA levels in stellate cells were analyzed with qRT-PCR.

[6] = tested on: phosphorylated 4EBP1 (p4EBP1c (37/46)/4EBP1c); assay: Western blot of phosphorylated 4EBP1 in human hepatocytes; type: cell-based; details: 3 μM, mTORC1 pathway, time point not stated
[7] = tested on: multiple human tumor cell types; details: combined with cytotoxic, hormonal, and targeted agents; cited from earlier work
[8] = tested on: COL1A1 mRNA in mouse liver; assay: In vivo compound testing in wild-type mice, liver COL1A1 mRNA; details: 50 mg/kg once daily, oral gavage, four days; GFAP as control
Protocol: A group of 6 mice (C57BL/6J strain), 3 male and 3 female, were administered with a candidate compound once daily via oral gavage for four consecutive days. Mice were sacrificed 4 hours post-last dose on the fourth day. Organs including liver, spleen, kidney, adipose, plasma were collected. Mouse liver tissues were pulverized in liquid nitrogen and aliquoted into small microtubes. TRIzol (Invitrogen Cat #15596026) was added to the tubes to facilitate cell lysis from tissue samples. The TRIzol solution containing the disrupted tissue was then centrifuged and the supernatant phase was collected. Total RNA was extracted from the supernatant using Qiagen RNA Extraction Kit (Qiagen Cat #74182) and the target mRNA levels were analyzed using qRT-PCR.
Candidate compounds were administered at an appropriate dose once daily to a group of wild-type mice consisting of 3 male and 3 female mice. Mice were sacrificed on the fourth day and liver tissue was collected and analyzed for PNPLA3 (or COL1A1) expression by qRT-PCR. […] When COL1A1 was analyzed, a stellate cell specific gene GFAP was used as a house-keeping control.

PNPLA3 expression = assay: RNA-seq of compound-treated primary human hepatocytes; type: cell-based; details: PNPLA3 expression, RNA-seq
Protocol: Cryopreserved hepatocytes were cultured in plating media for 16 hours, transferred to maintenance media for 4 hours. Cultured on serum-free media for 2 hours, then a compound was added. The hepatocytes were maintained on the serum-free media for 16 hours prior to gene expression analysis.
Human hepatocytes cultured as described above were plated in 24-well format, adding 375,000 cells per well in a volume of 500 μl plating medium. Four hours before treatment, cells were washed with PBS and the medium was changed to either: fresh maintenance medium (complete) or modified maintenance medium.
Compound stocks were prepared at 1000× final concentration and added in a 2-step dilution to the medium to reduce risk of a compound precipitating out of solution when added to the cells, and to ensure reasonable pipetting volumes. One at a time, each compound was first diluted 10-fold in warm (about 37° C.) modified maintenance medium (initial dilution=ID), mixed by vortexing, and the ID was diluted 100-fold into the cell culture (e.g. 5.1 μl into 1 well of a 24-well plate containing 0.5 mL medium). The plate was mixed by carefully swirling and after all wells were treated and returned to the incubator overnight. If desired, separate plates/wells were treated with vehicle-only controls and/or positive controls. If using multi-well plates, controls were included on each plate. After about 18 hours, cells were harvested for further analysis, e.g., ChIP-seq, RNA-seq, ATAC-seq, etc.
The expression level of each gene was quantified with normalized FPKM (fragments per kilobase of exon per million mapped fragments). The differentially expressed genes were called using Cuffdiff v2.2.1 with q value<0.01 and log2 fold change>=1 or <=−1.
To identify small molecules that modulate PNPLA3, primary human hepatocytes were prepared as a monoculture, and at least one small molecule compound was applied to the cells.
RNA-seq was performed to determine the effects of the compounds on PNPLA3 expression in hepatocytes. Fold change was calculated by dividing the level of expression in the cell system that had been perturbed by the level of expression in an unperturbed system. Changes in expression having a p-value≤0.05 were considered significant.

ACTA2 mRNA = assay: qRT-PCR of fibrosis related genes in stellate cells, ACTA2; type: cell-based, human; details: stellate cells P7, 0.5 μM, 18 hours
Protocol: (§2) Stellate cells P7 were treated with 0.5 μM of each of the indicated compounds for 18 hours. Cells were processed for RNA extraction and qRT-PCR as previously described. The assay was repeated in triplicate.

TGFB1 mRNA = assay: qRT-PCR of fibrosis related genes in stellate cells, TGFB1; type: cell-based, human; details: stellate cells P7, 0.5 μM, 18 hours
Protocol: as §2

COL1A2 mRNA = assay: qRT-PCR of fibrosis related genes in stellate cells, COL1A2; type: cell-based, human; details: stellate cells P7, 0.5 μM, 18 hours
Protocol: as §2

TIM2 mRNA = assay: qRT-PCR of fibrosis related genes in stellate cells, TIM2; type: cell-based, human; details: stellate cells P7, 0.5 μM, 18 hours
Protocol: as §2

MMP2 mRNA = assay: qRT-PCR of fibrosis related genes in stellate cells, MMP2; type: cell-based, human; details: stellate cells P7, 0.5 μM, 18 hours
Protocol: as §2

[9] = 35 min to 20 hrs, relative to DMSO control
[10] = hepatic stellate cells, 0.01 μM
[11] = hepatic stellate cells, serial dilutions, 18 hours
[12] = stellate cells P7, 0.5 μM, 18 hours

CO[C@H]1C[C@@H]2CC[C@@H](C)[C@@](O)(O2)C(=O)C(=O)N2CCCC[C@H]2C(=O)O[C@H]([C@H](C)C[C@@H]2CC[C@@H](O)[C@H](OC)C2)CC(=O)[C@H](C)/C=C(\C)[C@@H](O)[C@@H](OC)C(=O)[C@H](C)C[C@H](C)/C=C/C=C/C=C/1C [rapamycin]
Primary Hepatocytes 4178 PNPLA3 (fold change in mRNA expression) (PNPLA3 mRNA [1]): 1.50 | Primary Hepatocytes 4282 PNPLA3 (fold change in mRNA expression) (PNPLA3 mRNA [1]): 1.10 | PNPLA3 mRNA (PNPLA3 mRNA [1]): 1.2 | Primary Hepatocytes 4178 PCSK9 (fold change in mRNA expression) (PCSK9 mRNA): 1.37 | pAKT (473)/AKT [2]: 2.55 | pS6/S6 [3]: 0.07 | p-NDRG1/NDRG1 [4]: 1.76 | Primary Stellate cells PNPLA3 (fold change in mRNA expression) (PNPLA3 mRNA [5]): 0.49 | Primary Stellate cells COL1A1 (fold change in mRNA expression) (COL1A1 mRNA): 1.43 | p4EBP1c (37/46)#/4EBP1c [6]: 0.49

Cc1nc(NC(=O)N2CCC[C@H]2C(N)=O)sc1-c1ccnc(C(C)(C)C(F)(F)F)c1 [Alpelisib (BYL719), Alpelisib]
PNPLA3 mRNA expression level over time (in words) (PNPLA3 mRNA [1]): largely did not change | PNPLA3 mRNA expression level over time (in words) (PNPLA3 mRNA [1]; listed as Alpenisib): did not lead to decreased PNPLA3 expression | Primary Hepatocytes 4178 PNPLA3 (fold change in mRNA expression) (PNPLA3 mRNA [1]): 0.80 | Primary Hepatocytes 4282 PNPLA3 (fold change in mRNA expression) (PNPLA3 mRNA [1]): 0.69 | PNPLA3 mRNA (PNPLA3 mRNA [1]): 0.971 | Primary Hepatocytes 4178 PCSK9 (fold change in mRNA expression) (PCSK9 mRNA): 0.67 | phosphorylated AKT (pAKT/AKT) over time (in words) [2, 9]: largely did not change | pAKT (473)/AKT [2]: 0.34 | phosphorylated S6 (pS6/S6) over time (in words) [3, 9]: increased at 2 hours, then decreased | pS6/S6 [3]: 1.11 | p-NDRG1/NDRG1 [4]: 1.11 | Primary Stellate cells PNPLA3 (fold change in mRNA expression) (PNPLA3 mRNA [5]): 0.94 | Primary Stellate cells COL1A1 (fold change in mRNA expression) (COL1A1 mRNA): 1.16 | p4EBP1c (37/46)#/4EBP1c [6]: 0.61

C[C@@]1(C(=O)Nc2ccc(F)nc2)CCCN1c1nc(Nc2cc(C3CC3)[nH]n2)c2cccn2n1 [BMS-754807]
combination index [7]: < 1.0

CNC(=O)Nc1ccc(-c2nc(N3CC4CCC(C3)O4)c3cnn(C4CCC5(CC4)OCCO5)c3n2)cc1 [WYE-125132]
Relative PNPLA3 mRNA levels (PNPLA3 mRNA [1]; 1 μM of WYE-125132, human hepatocytes, qRT-PCR, mean of three replicates ± standard deviation): 0.67 ± 0.09 | Primary Hepatocytes 4178 PNPLA3 (fold change in mRNA expression) (PNPLA3 mRNA [1]): 0.43 | Primary Hepatocytes 4282 PNPLA3 (fold change in mRNA expression) (PNPLA3 mRNA [1]): 0.70 | PNPLA3 expression by reported compound specificity (in words) (PNPLA3 mRNA [1]; summary of mTOR/PI3K inhibitor testing): did decrease PNPLA3 expression | COL1A1 expression in mouse liver (in words) [8]: reduced COL1A1 expression in mouse liver | Primary Hepatocytes 4178 PCSK9 (fold change in mRNA expression) (PCSK9 mRNA): 0.43 | Fold change (Log 2) vs untreated (PNPLA3 expression): −0.86 | Relative mRNA ACTA2 (ACTA2 mRNA): 0.54 ± 0.01 | Relative mRNA TGFB1 (TGFB1 mRNA): 1.10 ± 0.03 | Primary Stellate cells PNPLA3 (fold change in mRNA expression) (PNPLA3 mRNA [5]): 0.54 | Relative PNPLA3 mRNA levels RQ (PNPLA3 mRNA [5]; [10]): 0.44 | Relative PNPLA3 mRNA levels RQ (PNPLA3 mRNA [5]; hepatic stellate cells, 0.1 μM): 0.36 | Relative PNPLA3 mRNA levels RQ (PNPLA3 mRNA [5]; hepatic stellate cells, 1 μM): 0.42 | Relative PNPLA3 mRNA levels RQ (PNPLA3 mRNA [5]; hepatic stellate cells, 10 μM): 0.42 | PNPLA3 mRNA levels (in words) (PNPLA3 mRNA [5]; [11]): decreased both PNPLA3 and COL1A1 in HSCs in a dose-dependent manner | Relative mRNA PNPLA3 (PNPLA3 mRNA [5]; [12]): 0.20 ± 0.01 | Primary Stellate cells COL1A1 (fold change in mRNA expression) (COL1A1 mRNA): 0.46 | Relative COL1A1 mRNA levels RQ (COL1A1 mRNA; [10]): 0.92 | Relative COL1A1 mRNA levels RQ (COL1A1 mRNA; hepatic stellate cells, 0.1 μM): 0.42 | Relative COL1A1 mRNA levels RQ (COL1A1 mRNA; hepatic stellate cells, 1 μM): 0.26 | Relative COL1A1 mRNA levels RQ (COL1A1 mRNA; hepatic stellate cells, 10 μM): 0.29 | COL1A1 expression (in words) (COL1A1 mRNA; [11]): decreased both PNPLA3 and COL1A1 in HSCs in a dose-dependent manner | Relative mRNA COL1A1 (COL1A1 mRNA; [12]): 0.22 ± 0.01 | Relative mRNA COL1A2 (COL1A2 mRNA): 0.27 ± 0.00 | Relative mRNA TIMP2 (TIM2 mRNA): 1.01 ± 0.07 | Relative mRNA MMP2 (MMP2 mRNA): 1.33 ± 0.02
